# Data: paper PMC9590307, “Peptide ^Tat(48–60) YVEEL protects against necrotizing enterocolitis through inhibition of toll-like receptor 4-mediated signaling in a phosphatidylinositol 3-kinase/AKT dependent manner” (Frontiers in Nutrition, 2022)
# Experiments:
# Format in all cases: cell-based, human
# [1] = test system: TLR4-mediated signaling in FHC enterocytes; experiment: Western blot of TLR4-mediated signaling in LPS-treated enterocytes
# [2] = test system: TLR4-mediated signaling in FHC enterocytes; experiment: qRT-PCR of IL-6 and COX-2 mRNA in LPS-treated enterocytes
# FHC cells = experiment: In vitro enterocyte migration (scratch wound); conditions: Ys49 2 and 5 μM with peptide 40 μM for 1 h, then LPS
# Experimental: Cells were expected to reach a 100% confluence on the day of the experiment. Monolayers were scratched by a sterile pipette tip and washed for three times with pre-warmed 1 × PBS. The wounded monolayer of FHC or IEC-6 cells was imaged at indicated time using a microscope (Zeiss, Germany). The relative migration index of the cells was measured according to the area of the wound edge by Image J software (NIH Image, USA).
# [3] = test system: p65 subunit of NF-κB in FHC cells; experiment: Immunofluorescence staining of NF-κB p65 nuclear translocation; conditions: Ys49 2 and 5 μM with peptide 40 μM for 1 h, then LPS
# Experimental: FHC cells were fixed, washed and blocked, and then incubated with the following primary antibodies: anti-NF-κB p65 (Cell Signaling Technology, USA) and […]. The Alexa Fluor® 488-labeled goat anti-rabbit secondary antibody was used (Cell Signaling Technology, USA). FHC cells were counterstained with DAPI (Sigma-Aldrich, USA) and visualized using a fluorescence microscope (Zeiss, Germany).
# [4] = test system: PI3K/AKT pathway in FHC enterocytes; experiment: Western blot of PI3K and AKT phosphorylation; conditions: Ys49 2 and 5 μM with ^Tat(48–60) YVEEL 40 μM for 1 h, then LPS
# Experimental: Cell pellets or intestinal tissues were lysed with RIPA buffer (Beyotime, China) for 20 min on ice and lysates were collected by centrifugation (13000 × g, 20 min at 4°C). Protein concentrations were quantified using the BCA Protein Assay (Thermo Fisher Scientific, USA) and equal amounts (20 μg) of protein lysates from each sample were separated by SDS-PAGE. Separated proteins were then transferred to PVDF membranes (Millipore, USA). Membranes were blocked with 5% skim milk or BSA and then incubated with the following primary antibodies: anti-TLR4 (Abcam, USA), anti-p-IκBα (Abcam, USA), anti-IκBα (Abcam, USA), anti-p-PI3K (Cell Signaling Technology, USA), anti-p-AKT (Cell Signaling Technology, USA), anti-PI3K (Cell Signaling Technology, USA), anti-AKT (Cell Signaling Technology, USA), anti-β-actin (Abcam, USA). Membranes were then incubated with species-matched HRP-conjugated secondary antibodies (Biosharp, China). Protein expressions were visualized using Immobilon® Western Chemiluminescent HRP Substrate (Millipore, USA) in accordance with the manufacturer’s protocol.
# [5] = LY294002 10 μM in the absence or presence of ^Tat(48–60) YVEEL 40 μM, LPS
# [6] = Ys49 2 and 5 μM with ^Tat(48–60) YVEEL 40 μM for 1 h, then LPS
Structure (SMILES),"TLR4 protein expression, inhibition in the presence of ^Tat(48–60) YVEEL ([1]; LY294002 10 μM plus ^Tat(48–60) YVEEL 40 μM, LPS)","TLR4 protein expression ([1]; LY294002 10 μM, LPS)","TLR4-induced mRNA expression of COX-2 [2, 5]","TLR4-induced mRNA expression of IL-6 [2, 5]",effect on protective effect of ^Tat(48–60) YVEEL on enterocyte migration (FHC cells),"effect on ^Tat(48–60) YVEEL-induced reduction of TLR4 expression [1, 6]","effect on ^Tat(48–60) YVEEL-induced reduction of p-IκBα expression [1, 6]","effect on protective effect of ^Tat(48–60) YVEEL on TLR4-mediated induction of pro-inflammatory cytokines (IL-6, COX-2 mRNA) [2, 6]",effect on blockage of TLR4-mediated cytoplasm-nucleus translocation of p65 by the peptide [3],effect on inhibitory effects of ^Tat(48–60) YVEEL on PI3K/AKT pathway [4]
O=c1cc(N2CCOCC2)oc2c(-c3ccccc3)cccc12 [LY294002],more significant,could inhibit,reduced,reduced,–,–,–,–,–,–
Oc1cc2c(cc1O)C(Cc1cccc3ccccc13)NCC2 (stereo not shown) [Ys49],–,–,–,–,attenuated,notably reversed,notably reversed,reversed,attenuated,significantly abolished
